Measured values reported in PubChem BioAssay AID1963849 (Molecular Pharmacology Branch, DTP, NCI, 2024).

Test system: 299254-011-R-J1-PDC complex spheroid viability
Experiment: Anticancer human tumor 299254-011-R-J1-PDC patient-derived melanoma cell line growth inhibition [POLQ]
Details: for IC50: curve of first compound; for viability, T/C: stronger effect = lower value
Summary of the method: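 Growth inhibition in 3D: complex spheroids (tumor PDC, HUVEC, MSC) treated with POLQ inhibitor combinations; where Cmax unknown, highest tested concentration 10 microM, except SN-38 at 1 microM.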

[1] = second compound 0.0316 µM, first compound 0.0316 µM
[2] = second compound 0.0316 µM, first compound 0.1 µM
[3] = second compound 0.0316 µM, first compound 0.316 µM
[4] = second compound 0.0316 µM, first compound 1 µM
[5] = second compound 0.1 µM, first compound 0.0316 µM
[6] = second compound 0.1 µM, first compound 0.1 µM
[7] = second compound 0.1 µM, first compound 0.316 µM
[8] = second compound 0.1 µM, first compound 1 µM
[9] = second compound 0.316 µM, first compound 0.0316 µM
[10] = second compound 0.316 µM, first compound 0.1 µM
[11] = second compound 0.316 µM, first compound 0.316 µM
[12] = second compound 0.316 µM, first compound 1 µM
[13] = second compound 1 µM, first compound 0.0316 µM
[14] = second compound 1 µM, first compound 0.1 µM
[15] = second compound 1 µM, first compound 0.316 µM
[16] = second compound 1 µM, first compound 1 µM
[17] = second compound 3.16 µM, first compound 0.0316 µM
[18] = second compound 3.16 µM, first compound 0.1 µM
[19] = second compound 3.16 µM, first compound 0.316 µM
[20] = second compound 3.16 µM, first compound 1 µM
[21] = second compound 10 µM, first compound 0.0316 µM
[22] = second compound 10 µM, first compound 0.1 µM
[23] = second compound 10 µM, first compound 0.316 µM
[24] = second compound 10 µM, first compound 1 µM
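Note: spheroids exposed to drugs for one week before measurement.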
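Throughout, for viability, T/C: percent viability relative to DMSO vehicle control taken as 100%.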

## COc1cccc(OCCCN)c1-c1cc(Nc2cnc(C#N)cn2)n[nH]1 + COC1C(OC(N)=O)C(O)C(Oc2ccc3c(O)c(NC(=O)c4ccc(O)c(CC=C(C)C)c4)c(=O)oc3c2C)OC1(C)C
Second compound 0.0316 µM
  IC50: 65.1 nM
Second compound 0.1 µM
  IC50: 119 nM
Second compound 0.316 µM
  IC50: 111 nM
Second compound 1 µM
  IC50: 206 nM
Second compound 3.16 µM
  IC50: 84.5 nM
Second compound 10 µM
  IC50: 126 nM
Second compound 0.0316 µM, first compound 0.00316 µM
  viability, T/C: 99.5%
Second compound 0.0316 µM, first compound 0.01 µM
  viability, T/C: 94.9%
[1]
  viability, T/C: 58.7%
[2]
  viability, T/C: 49.6%
[3]
  viability, T/C: 41.6%
[4]
  viability, T/C: 38.1%
Second compound 0.1 µM, first compound 0.00316 µM
  viability, T/C: 94.2%
Second compound 0.1 µM, first compound 0.01 µM
  viability, T/C: 98.6%
[5]
  viability, T/C: 72%
[6]
  viability, T/C: 53.9%
[7]
  viability, T/C: 41.1%
[8]
  viability, T/C: 38%
Second compound 0.316 µM, first compound 0.00316 µM
  viability, T/C: 105%
Second compound 0.316 µM, first compound 0.01 µM
  viability, T/C: 102%
[9]
  viability, T/C: 74.5%
[10]
  viability, T/C: 52.4%
[11]
  viability, T/C: 42.1%
[12]
  viability, T/C: 39.6%
Second compound 1 µM, first compound 0.00316 µM
  viability, T/C: 114%
Second compound 1 µM, first compound 0.01 µM
  viability, T/C: 89.2%
[13]
  viability, T/C: 74.2%
[14]
  viability, T/C: 56.8%
[15]
  viability, T/C: 43.8%
[16]
  viability, T/C: 39.9%
Second compound 3.16 µM, first compound 0.00316 µM
  viability, T/C: 99.5%
Second compound 3.16 µM, first compound 0.01 µM
  viability, T/C: 105%
[17]
  viability, T/C: 65.7%
[18]
  viability, T/C: 55.1%
[19]
  viability, T/C: 38.3%
[20]
  viability, T/C: 48.6%
Second compound 10 µM, first compound 0.00316 µM
  viability, T/C: 105%
Second compound 10 µM, first compound 0.01 µM
  viability, T/C: 104%
[21]
  viability, T/C: 67.7%
[22]
  viability, T/C: 56.9%
[23]
  viability, T/C: 49%
[24]
  viability, T/C: 40%

## C#Cc1c(F)ccc2cc(O)cc(-c3ncc4c(N5CC6CCC(C5)N6)nc(OCC56CCCN5CC(F)C6)nc4c3F)c12 (centres undefined) + COC1C(OC(N)=O)C(O)C(Oc2ccc3c(O)c(NC(=O)c4ccc(O)c(CC=C(C)C)c4)c(=O)oc3c2C)OC1(C)C
Second compound 0.0316 µM
  IC50: > 10000 nM
Second compound 0.1 µM
  IC50: > 10000 nM
Second compound 0.316 µM
  IC50: > 10000 nM
Second compound 1 µM
  IC50: > 10000 nM
Second compound 3.16 µM
  IC50: > 10000 nM
Second compound 10 µM
  IC50: > 10000 nM
[1]
  viability, T/C: 87.2%
[2]
  viability, T/C: 125%
[3]
  viability, T/C: 105%
[4]
  viability, T/C: 115%
Second compound 0.0316 µM, first compound 3.16 µM
  viability, T/C: 96.4%
Second compound 0.0316 µM, first compound 10 µM
  viability, T/C: 79.7%
[5]
  viability, T/C: 102%
[6]
  viability, T/C: 99.2%
[7]
  viability, T/C: 99.2%
[8]
  viability, T/C: 114%
Second compound 0.1 µM, first compound 3.16 µM
  viability, T/C: 94.8%
Second compound 0.1 µM, first compound 10 µM
  viability, T/C: 80.9%
[9]
  viability, T/C: 110%
[10]
  viability, T/C: 104%
[11]
  viability, T/C: 107%
[12]
  viability, T/C: 114%
Second compound 0.316 µM, first compound 3.16 µM
  viability, T/C: 105%
Second compound 0.316 µM, first compound 10 µM
  viability, T/C: 72.7%
[13]
  viability, T/C: 104%
[14]
  viability, T/C: 98.2%
[15]
  viability, T/C: 105%
[16]
  viability, T/C: 136%
Second compound 1 µM, first compound 3.16 µM
  viability, T/C: 102%
Second compound 1 µM, first compound 10 µM
  viability, T/C: 79.4%
[17]
  viability, T/C: 114%
[18]
  viability, T/C: 109%
[19]
  viability, T/C: 106%
[20]
  viability, T/C: 109%
Second compound 3.16 µM, first compound 3.16 µM
  viability, T/C: 101%
Second compound 3.16 µM, first compound 10 µM
  viability, T/C: 70.6%
[21]
  viability, T/C: 93.9%
[22]
  viability, T/C: 99.7%
[23]
  viability, T/C: 111%
[24]
  viability, T/C: 101%
Second compound 10 µM, first compound 3.16 µM
  viability, T/C: 111%
Second compound 10 µM, first compound 10 µM
  viability, T/C: 69.2%
